In patent EP1082099B1, “SURFACTANT FOR USE IN EXTERNAL PREPARATIONS FOR SKIN AND EXTERNAL PREPARATION FOR SKIN CONTAINING THE SAME” (Showa Denko K K, priority 1998, dated 1999):

Assays:
[1] = Skin penetration test of methylparaben through hairless mouse skin (two-chamber); type: in vitro ADME; conditions: Example 2; donor side phosphate buffer pH 7 with stated composition; after 5 hours
Method: One (donor side) of two chambers separated by a hairless mouse skin was filled with a phosphate buffer (pH 7) having dissolved therein a substance having the composition described in Table 3 and the other (receiver side) was filled with a phosphate buffer solution (pH 7). After 5 hours, the concentration of methylparaben on the receiver side was measured. […] As will be apparent from the results, surfactin suppressed the skin penetration of skin-irritating substances.
(§1) One (donor side) of two chambers separated by a hairless mouse skin was filled with a cosmetic having the composition described in Table 6 and the other (receiver side) was filled with a phosphate buffer solution (pH 7). After 5 hours, the concentration of methylparaben on the receiver side was measured.
as §1, with “14” for “6”

[2] = tested on: three-dimensional skin model; assay: Skin irritation test: MTT cytotoxicity on three-dimensional cultured skin model; type: cell-based; conditions: test substance in PBS pH 7, 1 hour exposure, 16 hours incubation, read from graph
Method: Using a three-dimensional skin model (trade name: Three-dimensional cultured skin model, manufactured by Gunze), skin irritation tests were performed. […] The test substances were adjusted with PBS (Phosphate Buffer Saline, pH 7) so that they were in various concentrations. To the thus-adjusted test substances was exposed the skin model for 1 hour. Thereafter, the test substances were washed and incubated for 16 hours in a medium attached to the above-described three-dimensional skin model. After the incubation, a solution of MTT (3-(4,5-dimethylthiazol-2-yl)-2,5-diphenyltetrazolium bromide) was added and pigments were extracted with isopropanol rendered acidic with hydrochloric acid, followed by measurement of absorbance at a wavelength of 570 nm. […] This value was called B. The MTT solution was added to PBS and extraction was performed similarly. Absorbance of the extract measured at a wavelength of 570 nm was named C. From these values was calculated cytotoxicity. Calculation was made according to the following equation. Cytotoxicity (%) = (1-(A-c)/(B-C)) x 100 [formula]
Plotting the concentration of a test substance on the axis of abscissa and cytotoxicity on the axis of ordinate, a graph was obtained, from which the concentration of a test compound at 50% cytotoxicity was read.

| SMILES | Concentration of methylparaben of receiver [1] [ppm] | Concentration of surfactant at 50% cytotoxicity [2] [%] |
| --- | --- | --- |
| COC(=O)c1ccc(O)cc1 [0.1% Methylparaben, Methylparaben] | 5.7 |  |
| CCCCCCCCCCCCOS(=O)(=O)[O-].[Na+] [SDS, sodium dodecylsulfate, reference compound] |  | 0.2 |
